Reference: paper PMC8466854, “Molecular Determinant of DIDS Analogs Targeting RAD51 Activity” (Molecules, 2021)
Where two headings read alike, the source gives them in different places.

Experiments:
[1] = biological target: T1, RAD51 (Homo sapiens, UniProt Q06609); assay: D-loop assay (RAD51-mediated D-loop formation); format: biochemical; settings: for Effect on D-loop structure formation: increasing concentration until 100 µM
T1 construct: His; made in house; host or cells: Escherichia coli BL21-DE3
T1 sequence (Q06609 1-339): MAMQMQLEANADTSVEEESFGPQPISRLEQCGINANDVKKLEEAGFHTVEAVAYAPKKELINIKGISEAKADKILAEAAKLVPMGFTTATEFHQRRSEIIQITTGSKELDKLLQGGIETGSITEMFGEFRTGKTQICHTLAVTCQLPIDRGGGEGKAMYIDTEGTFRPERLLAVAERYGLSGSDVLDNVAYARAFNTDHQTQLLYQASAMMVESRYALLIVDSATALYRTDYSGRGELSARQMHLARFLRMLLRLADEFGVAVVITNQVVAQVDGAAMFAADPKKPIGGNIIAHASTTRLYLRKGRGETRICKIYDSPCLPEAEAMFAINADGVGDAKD
Procedure: Firstly, we incubated RAD51 with increasing concentrations of DIDS (from 1 to 100 µM) and then we calculated the percent of D-loop by quantifying the shifted band in comparison to the control condition in absence of DIDS (Figure 2A).
(A) D-loop structures in presence of increasing concentration of DIDS analogs (5, 25, 50, 145, and 100 µM) were separated and visualized on agarose gel. Last lane corresponds to the control condition without DIDS-derived molecule. (B) After quantification of signal intensity of shifted band corresponding to D-loop structure, the percent of D-loop is calculated in comparison to the condition in absence of drug and presented in relation to the increasing concentration (from 1 to 100 µM) of each small molecule. Three independent experiments were performed and each error bar represents s.d. statistical analysis.
An IRD700 100 bp ssDNA probe (Integrated DNA Technologies, Leuven, Belgium) is used to assess D-loop formation activity of RAD51. Reactional buffer is prepared (25 mM Tris-HCl pH7.5; 1 mM DTT; 1 mM ATP; 1 mM CaCl2; qsp water) in the presence of 1 µM ssDNA probe. RAD51 is then added to the reaction, and the mixture is incubated for 5 min at 37 °C. Plasmid DNA (3 mM) is next added to the reaction for a final volume of 10 µL and incubated at 37 °C for 15 min. Reaction is deproteinized by adding stop buffer (20 mM Tris-HCl pH7.5; 5 mg/mL proteinase K; qsp water) and the mixture is incubated for 20 min at 37 °C.

[2] = biological target: T2, RAD51 nucleofilament (Homo sapiens, UniProt Q06609); assay: DNA binding assay by bio-layer interferometry (BLItz), drug added after RAD51 is bound to ssDNA: nucleofilament dissociation; settings: drug added at 40 µM after association of RAD51 with ssDNA
T2 construct: His; made in house; host or cells: Escherichia coli BL21-DE3
T2 sequence (Q06609 1-339): T1 sequence (Q06609 1-339)
Procedure: (§1) Figure 3 DIDS derivatives modulate the RAD51 nucleofilament formation. The association and dissociation between RAD51 and ssDNA were evaluated by Blitz interferometry. RAD51 (2 µM) was pre-incubated in phosphate buffer in absence or presence of each molecule at different concentrations before the measurement. The association phase followed until 50 s while the dissociation phase was monitored until 80 or 90 s, as indicated in graphs. (A) Effect of DIDS family on the ssDNA-RAD51 association was evaluated at 40 µM concentration of each molecule including DIDS, DADS, DAZDS, DNDS, and SITS. (B) DIDS, (C) DAZDS, and (D) SITS were incubated with RAD51 at increasing concentrations of 2, 10, and 20 µM for 5 min before the measurement by BLItz approach. (E) The percent of nucleofilament formation in presence of stilbene molecule was calculated in comparison to the condition in absence of drug after 50 s. This percentage was presented in function to the increasing concentration (from 2 to 20 µM) of each small molecule. (F) RAD51 associates with ssDNA until 50 s, and then each molecule is added at 40 µM as indicated by the narrow in the graph.
To this purpose, we incubated RAD51 with ssDNA, then we added the drug, and we measured the dissociation kinetic of RAD51 nucleofilament (Figure 3F).
(§2) PolydT DNA (1 µM) is biotinylated to allow its binding to the streptavidin-coated biosensor. Two methods of evaluation are used: the former by pre-incubating RAD51 with the drug to test and the latter by adding the drug after RAD51 is bound to DNA. In the first case, 2 µM RAD51 is incubated with the drug for […] on ice, then RAD51-ssDNA binding measurement is performed (baseline phase: 10 s; association phase: 40 s; dissociation phase: 30 s). In the second case, RAD51-ssDNA binding is analyzed, and after the association phase, the drug is added to the reaction and dissociation effect is measured (baseline phase: 10 s; association phase: 50 s; dissociation phase: 40 s). For the two cases, reaction buffer is composed of Phosphate Buffer saline (PBS) and 1 mM ATP. The tip is regenerated with 50 mM NaOH during 40 s before reuse. Measures are realized on a BLItz device from ForteBio.

[3] = biological target: T1, RAD51; assay: RAD51 self-association by BS3 chemical cross-linking; format: biochemical; settings: 50 µM of drug; for Effect on oligomer/monomer migration profile (self-association of RAD51): RAD51 8.5 µM, BS3 cross-link, SDS-PAGE; for Decrease of polymerization rate (oligomer/monomer form intensity ratio): three independent experiments
From the text: The mechanism of action of these DIDS analogs molecules remains unclear, but they probably act on the protein–protein interaction site of RAD51. In order to assess their possible effect on the subunit–subunit RAD51 association, we investigated the oligomerization level of RAD51 in presence of these small molecules. By using BS3 cross-linker, we fixed the quaternary structure of RAD51 in absence or in presence of the five stilbene molecules. Oligomer and monomer forms were separated on SDS-PAGE and stained with Coomassie blue (Figure 4A). Oligomer forms include dimer, trimer, and high polymer while monomer form is well separated at 37 kDa.
Figure 4 Self-association of RAD51 is inhibited in the presence of DIDS, SITS, and DAZDS. (A) The polymerization of RAD51 was estimated by cross-link approach (see Material and Method section). (B) Oligomer and monomer forms ratio is presented as a histogram graph. Three independent experiments were performed and statistical analysis was performed using paired Student’s t-test. Statistical significance was assumed at ** p < 0.01, *** p < 0.001. Each error bar represents s.d. statistical analysis.
RAD51 at 8.5 µM was incubated with the indicated concentrations of chemical compounds for 5 min at room temperature in a buffer containing 20 mM sodium phosphate, 50 mM azidol, 1 mM MgCl2, and 1 mM ATP. The protein was cross-linked with 4.2 µM of BS3 (bis(sulfosuccinimidyl)suberate, Sigma) at room temperature for 30 min. Then the reaction was stopped by addition of Tris-HCl pH 8.1 at final concentration 33 mM for 15 min at room temperature. The sample was separated by SDS-PAGE at 10% and analyzed by Western blotting. Anti-RAD51 rabbit antibody was used as primary antibody (Sigma-Aldrich Cat# SAB2101936, RRID:AB_10607384), then secondary anti-rabbit antibody conjugated to alexafluor 680 (GAR 700: Molecular Probes Cat# A-21076, RRID:AB_2535736) was used for the detection. The quantification of monomer and cross-linked oligomers was performed by an Odyssey infrared imaging system scanner (LI-COR, Biosciences, Lincoln, NE, USA).

[4] = biological target: T1, RAD51; assay: DNA binding assay by bio-layer interferometry (BLItz), RAD51 pre-incubated with drug: ssDNA-RAD51 association / nucleofilament formation; settings: for inhibition at 20 µM: read-out: Inhibition of the association of RAD51 with ssDNA (reduction of nucleofilament formation); for Effect on ssDNA-RAD51 association: RAD51 2 µM pre-incubated with drug, 40 µM of each molecule (Figure 3A)
Procedure: We have evaluated the steps preceding D-loop formation, namely the formation of the nucleofilament of RAD51. We investigated the effect of DIDS and its derivatives on ssDNA binding and the nucleofilament formation functions of RAD51 by bio-layer interferometry. Two approaches were undertaken: (i) to determine the impact of drugs on RAD51-ssDNA binding and (ii) to evaluate the ability of drugs to dissociate RAD51 nucleofilament. Concerning the first approach, we pre-incubated RAD51 with the drug of interest for 5 min before measuring ssDNA-RAD51 binding efficiency. […] At a concentration of 20 μM, DAZDS inhibits the association of RAD51 with ssDNA by more than 80% (Figure 3C,E), while at the same concentration the SITS slightly reduces the formation of the nucleofilament by about 10–20% (Figure 3D,E).
as §1, §2

[5] = test system: fibroblast and prostatic cancer cells; assay: Cytotoxicity (data not shown); format: cell-based
[6] = test system: RAD51 foci formation; set-up: method as in earlier work; settings: leukemia cells / B cells ref 21, Muramatsu et al.; cited from earlier work
[7] = set-up: method as in PMID 18642799; settings: aqueous solution ref 30; cited from earlier work
[8] = test system: RAD51; set-up: method as in PMID 19336413; settings: absence or presence of ATP has no influence ref 20; cited from earlier work
[9] = test system: RAD51 (Homo sapiens); assay: BLI; settings: 1 mM ATP, RAD51 pre-incubated with DAZDS 20 uM, BLI (BLItz): PBS, 2 uM RAD51, biotinylated polydT 1 uM on streptavidin sensor, drug pre-incubation 10 min on ice (Methods; 5 min in Results), assay …
[10] = D-loop formation by RAD51, 1 to 100 µM of each molecule, three independent experiments, read-out: IC50 determination from D-loop data

Compound | IC50 [1, 10] | Effect on D-loop structure formation [1] | Effect on nucleofilament stability (dissociation of RAD51 nucleofilament) [2] | Effect on oligomer/monomer migration profile (self-association of RAD51) [3] | Decrease of polymerization rate (oligomer/monomer form intensity ratio) [3] | inhibition at 20 µM ([4]; 20 µM of drug, RAD51 2 µM pre-incubated, after 50 s) | Effect on ssDNA-RAD51 association [4] | Cytotoxicity ([5]; cells not given, in contrast to DIDS) | RAD51 nucleofilament formation ([4]; from 10 µM of drug, RAD51 2 µM pre-incubated) | Cytotoxicity ([5]; fibroblast and prostatic cancer cells, data not shown) | RAD51 foci formation [6] | Stability in aqueous solution [7] | RAD51 binding to ssDNA or dsDNA in the presence of the drug [8] | IC50 [1] | IC50 ([1]; read-out: IC50 determination from D-loop data, D-loop formation by RAD51, 1 to 100 µM of each molecule, three independent experiments) | inhibition at 20 µM [4] | binding signal (% inhibition of association) [9]
Nc1ccc(C=Cc2ccc(N)cc2S(=O)(=O)O)c(S(=O)(=O)O)c1 [DADS, 4,4′-diaminostilbene-2,2′-disulfonic acid] | > 100 µM | no effect | not able to dissociate the nucleofilament | no effect on the self-association of RAD51 | no effect | – | – | – | – | – | – | – | – | – | – | – | –
[N-]=[N+]=Nc1ccc(C=Cc2ccc(N=[N+]=[N-])cc2S(=O)(=O)O)c(S(=O)(=O)O)c1 [DAZDS, 4,4′-diazidostilbene-2,2′-disulfonic acid] | 41.3 µM | significant inhibitory effect | totally dissociated the structure | decrease of oligomer forms in favor of RAD51 monomer | about 40% | > 80% | inhibitory effect | weak cytotoxicity | – | – | – | – | – | – | – | – | –
O=S(=O)(O)c1cc(N=C=S)ccc1C=Cc1ccc(N=C=S)cc1S(=O)(=O)O [DIDS, 4,4′-diisothiocyanatostilbene-2,2′-disulfonic acid] | 0.9 µM | inhibits D-loop intermediate structure in a dose-dependent manner | totally dissociated the structure | decrease of oligomer forms in favor of RAD51 monomer | about 40% | – | inhibitory effect | – | totally inhibited | relatively cytotoxic | inhibit RAD51 foci formation | unstable in aqueous solution | unable to bind ssDNA or dsDNA | – | – | – | –
O=[N+]([O-])c1ccc(C=Cc2ccc([N+](=O)[O-])cc2S(=O)(=O)O)c(S(=O)(=O)O)c1 [DNDS, 4,4′-dinitrostilbene-2,2′-disulfonic acid] | – | no effect | not able to dissociate the nucleofilament | no effect on the self-association of RAD51 | no effect | – | – | – | – | – | – | – | – | > 100 µM | ≤ 100 µM | – | –
CC(=O)Nc1ccc(C=Cc2ccc(N=C=S)cc2S(=O)(=O)O)c(S(=O)(=O)O)c1 [SITS, 4-acetamido-4′-isothiocyanatostilbene-2,2′-disulfonic acid] | – | significant inhibitory effect | – | decrease of oligomer forms in favor of RAD51 monomer | about 40% | – | inhibitory effect | – | – | – | – | – | – | 29 µM | – | 10 to 20% | –
polydT | – | – | – | – | – | – | – | – | – | – | – | – | – | – | – | – | > 80
